System: RSV strain A2
Experiment: RSV antiviral activity, in vitro cytoprotection assay in Hep2 cells
Format: cell-based, Respiratory Syncytial Virus (RSV)
Conditions: 0.5 μM compound; RSV-induced cytopathic effect in Hep2 cells; % inhibition calculated from fitted 4-parameter dose response curve, normalized to 0% and 100%
Description: Antiviral activity against RSV was determined using an in vitro cytoprotection assay in Hep2 cells. […] The method used was similar to methods previously described in published literature (Chapman et al., Antimicrob Agents Chemother. 2007, 51(9):3346-53.)
Hep2 cells were obtained from ATCC (Manassas, Va.) and maintained in MEM media supplemented with 10% fetal bovine serum and penicillin/streptomycin. Cells were passaged twice a week and kept at subconfluent stage. Commercial stock of RSV strain A2 (Advanced Biotechnologies, Columbia, Md.) was titered before compound testing to determine the appropriate dilution of the virus stock that generated desirable cytopathic effect in Hep2 cells.
For antiviral tests, Hep2 cells were seeded into 96-well plates 24 hours before the assay at a density of 3,000 cells/well. On a separate 96 well plate, compounds to be tested were serially diluted in cell culture media. Eight concentrations in 3-fold serial dilution increments were prepared for each tested compound and 100 uL/well of each dilution was transferred in duplicate onto plates with seeded Hep2 cells. Subsequently, appropriate dilution of virus stock previously determined by titration was prepared in cell culture media and 100 uL/well was added to test plates containing cells and serially diluted compounds. Each plate included three wells of infected untreated cells and three wells of uninfected cells that served as 0% and 100% virus inhibition control, respectively. Following the infection with RSV, testing plates were incubated for 4 days in a tissue culture incubator. After the incubation, RSV-induced cytopathic effect was determined using a Cell TiterGlo reagent (Promega, Madison, Wis.) followed by a luminescence read-out. The percentage inhibition was calculated for each tested concentration relative to the 0% and 100% inhibition controls and the EC50 value for each compound was determined by non-linear regression as a concentration inhibiting the RSV-induced cytopathic effect by 50%. Ribavirin (purchased from Sigma, St. Louis, Mo.) was used as a positive control for antiviral activity.
Compounds were also tested for antiviral activity against RSV in Hep2 cells using a 384 well format. Compounds were diluted in DMSO using a 10-step serial dilution in 3-fold increments via automation in 4 adjacent replicates each. Eight compounds were tested per dilution plate. 0.4 uL of diluted compounds were then stamped via Biomek into 384-well plates (Nunc 142761 or 164730 w/lid 264616) containing 20 μL of media (Mediatech Inc. MEM supplemented with Glutamine, 10% FBS and Pen/Strep). DMSO and a suitable positive control compound, such as 80 μM GS-329467 or 10 μM 427346 was used for the 100% and 0% cell killing controls, respectively.
Hep2 cells (1.0×10^5 cells/ml) were prepared as above in batch to at least 40 mls excess of the number of sample plates (8 mls cell mix per plate) and infected with vendor supplied (ABI) RSV strain A2 to arrive at an MOI of 1:1000 (virus:cell #) or 1:3000 (vol virus:cell vol). Immediately after addition of virus, the RSV infected Hep2 cell suspension was added to each stamped 384-well plate at 20 μl per well using a uFlow dispenser, giving a final volume of 40 μL/well, each with 2000 infected cells. The plates were then incubated for 5 days at 37° C. and 5% CO2. Following incubation, the plates were equilibrated to room temperature in a biosafety cabinet hood for 1.5 hrs and 40 μL of Cell-Titer Glo viability reagent (Promega) was added to each well via uFlow. Following a 10-20 minute incubation, the plates were read using an EnVision or Victor Luminescence plate reader (Perkin-Elmer). The data was then uploaded and analyzed on the Bioinformatics portal under the RSV Cell Infectivity and 8-plate EC50-Hep2-384 or 8-plate EC50-Hep2-Envision protocols. […]

In the case of `Cc1cc(C2CC2)nc2cc([C@@H]3CCCCN3C(=O)c3ccc(Cl)c(F)c3NS(C)(=O)=O)nn12` [Compound 31], the “Percent inhibition at 0.5 μM” value is reported as 86%.

Same assay, conditions: human respiratory syncytial virus, HEp-2, read-out: Percent inhibition at 0.5 μM

`CS(=O)(=O)Nc1ccc(Cl)cc1C(=O)N1CCCC[C@H]1c1cc2nc(N3CCC3)cc(NCCN)n2n1` [Compound 20] was tested, and the inhibition at 0.5 µM was 100%.

Same assay, conditions: human respiratory syncytial virus, HEp-2; 0.5 μM compound; RSV-induced cytopathic effect in Hep2 cells; % inhibition calculated from fitted 4-parameter dose response curve, normalized to 0% and 100%; read-out: Percent inhibition at 0.5 μM

Point of comparison: `Cc1cc(NS(C)(=O)=O)c(C(=O)N2CCCC[C@H]2c2cc3nc(N4CC[C@H](N)C4)c(C)cn3n2)s1` [Compound 12], inhibition at 0.5 µM 100%. Against it:
- CC1CN(c2cc(N3CCOCC3)n3nc([C@@H]4CCCCN4C(=O)c4cc(Cl)ccc4NS(C)(=O)=O)cc3n2)C1 [Compound 1] — lower, 95%
- Cc1cn2nc([C@@H]3CCCCN3C(=O)c3cc(Cl)ccc3NS(C)(=O)=O)cc2nc1N[C@@H](C)CO [Compound 2] — lower, 97%
- Cc1ccc(C(=O)N2CCCC[C@H]2c2cc3nc(N4CC[C@H](N)C4)c(C)cn3n2)c(C)c1 [Compound 4] — the same, 100%
- Cc1cn2nc([C@@H]3CCCCN3C(=O)c3ccccc3)cc2nc1N1CC[C@H](N)C1 [Compound 5] — the same, 100%
- Cc1cccnc1C(=O)N1CCCC[C@H]1c1cc2nc(N3CC[C@H](N)C3)c(C)cn2n1 [Compound 6] — the same, 100%
- Cc1ccncc1C(=O)N1CCCC[C@H]1c1cc2nc(N3CC[C@H](N)C3)c(C)cn2n1 [Compound 7] — the same, 100%
- COc1ccc(C)cc1C(=O)N1CCCC[C@H]1c1cc2nc(N3CC[C@H](N)C3)c(C)cn2n1 [Compound 8] — the same, 100%
- Cc1cn2nc([C@@H]3CCCCN3C(=O)c3ccccc3OC(F)(F)F)cc2nc1N1CC[C@H](N)C1 [Compound 9] — the same, 100%
- COc1ccc(Cl)cc1C(=O)N1CCCC[C@H]1c1cc2nc(N3CC[C@H](N)C3)c(C)cn2n1 [Compound 10] — the same, 100%
- Cc1ccc(N2CCCS2(=O)=O)c(C(=O)N2CCCC[C@H]2c2cc3nc(N4CC[C@H](N)C4)c(C)cn3n2)c1 [Compound 11] — the same, 100%
- CC(=O)Nc1sccc1C(=O)N1CCCC[C@H]1c1cc2nc(N3CC[C@H](N)C3)c(C)cn2n1 [Compound 13] — lower, 98%
- Cc1cnc(N)c(C(=O)N2CCCC[C@H]2c2cc3nc(N4CC[C@H](N)C4)c(C)cn3n2)c1 [Compound 14] — lower, 97%
- Cc1cn2nc([C@@H]3CCCCN3C(=O)c3n[nH]c4ccc(F)cc34)cc2nc1N1CC[C@H](N)C1 [Compound 15] — lower, 92%
- Cc1cn2nc([C@@H]3CCCCN3C(=O)c3cccc(C)c3O)cc2nc1N1CC[C@H](N)C1 [Compound 16] — the same, 100%
- Cc1cn2nc([C@@H]3CCCCN3C(=O)c3cc4ccccc4[nH]3)cc2nc1N1CC[C@H](N)C1 [Compound 17] — lower, 96%
- Cc1cn2nc([C@@H]3CCCCN3C(=O)c3ncccc3Cl)cc2nc1N1CC[C@H](N)C1 [Compound 18] — the same, 100%
- CS(=O)(=O)Nc1ccc(Cl)cc1C(=O)N1CCCC[C@H]1c1cc2nc(N3CCC3)cc(N3CCN[C@@H](CO)C3)n2n1 [Compound 19] — the same, 100%
- Cc1cn2nc([C@@H]3CCCCN3C(=O)c3cc(Cl)ccc3NS(C)(=O)=O)cc2nc1N1CC[C@H](CN)C1 [Compound 21] — the same, 100%
- Cc1cn2nc([C@@H]3CCCCN3C(=O)C(NS(C)(=O)=O)c3ccccc3Cl)cc2nc1N1C[C@@H](C#N)[C@@H](O)C1 (stereo partly shown) [Compound 22] — the same, 100%
- Cc1cn2nc([C@@H]3CCCCN3C(=O)C(NS(C)(=O)=O)c3ccccc3Br)cc2nc1N1C[C@@H](C#N)[C@@H](O)C1 (stereo partly shown) [Compound 23] — the same, 100%
- CNc1c(C)c(C)nc2cc([C@@H]3CCCCN3C(=O)c3cc(F)cc(Cl)c3NS(C)(=O)=O)nn12 [Compound 24] — lower, 91%
- CNc1c(C)c(C)nc2cc([C@@H]3CCCCN3C(=O)c3cc(Cl)cc(C)c3NS(C)(=O)=O)nn12 [Compound 25] — lower, 97%
- Cc1cc(C2CC2)nc2cc([C@@H]3CCCCN3C(=O)c3cc(Cl)cc(Cl)c3NS(C)(=O)=O)nn12 [Compound 26] — lower, 97%
- Cc1cn2nc([C@@H]3CCCCN3C(=O)[C@](C)(NS(C)(=O)=O)c3ccccc3)cc2nc1N1CC[C@H](N)C1 [Compound 27] — the same, 100%
- Cc1cn2nc([C@@H]3CCCCN3C(=O)[C@@](C)(NS(C)(=O)=O)c3ccccc3)cc2nc1N1CC[C@H](N)C1 [Compound 28] — the same, 100%
- Cc1cc(C2CC2)nc2cc([C@@H]3CCCCN3C(=O)c3cc(Cl)cc(F)c3NS(C)(=O)=O)nn12 [Compound 29] — lower, 90%
- Cc1cc(C2CC2)nc2cc([C@@H]3CCCCN3C(=O)c3cc(Cl)c(F)cc3NS(C)(=O)=O)nn12 [Compound 30] — lower, 91%
- Cc1nc2cc([C@@H]3CCCCN3C(=O)c3cc(F)cc(Cl)c3NS(C)(=O)=O)nn2c(C)c1C [Compound 32] — lower, 85%
- Cc1cn2nc([C@@H]3CCCCN3C(=O)C(NS(C)(=O)=O)c3ccccc3Br)cc2nc1N1CC[C@H](N)C1 (stereo partly shown) [Compound 33] — the same, 100%
- Cc1cn2nc([C@@H]3CCCCN3C(=O)C(NS(C)(=O)=O)c3ccccc3Cl)cc2nc1N1CC[C@H](N)C1 (stereo partly shown) [Compound 34] — the same, 100%
- Cc1cn2nc([C@@H]3CCCCN3C(=O)c3cc(Cl)ccc3CN=[N+]=[N-])cc2nc1N1CC[C@H](N)C1 [Compound 35] — the same, 100%
- Cc1cn2nc([C@@H]3CCCCN3C(=O)c3cc(Cl)ccc3CNS(C)(=O)=O)cc2nc1N1CC[C@H](N)C1 [Compound 36] — the same, 100%
- Cc1cn2nc([C@@H]3CCCCN3C(=O)c3cc(Cl)ccc3CN)cc2nc1N1CC[C@H](N)C1 [Compound 37] — the same, 100%
- Cc1cn2nc([C@@H]3CCCCN3C(=O)c3cc(Cl)ccc3NS(C)(=O)=O)cc2nc1N1CCC1C (stereo partly shown) [Compound 40] — the same, 100%
- C#CC1CCN(c2nc3cc([C@@H]4CCCCN4C(=O)c4cc(Cl)ccc4NS(C)(=O)=O)nn3cc2C)C1 (stereo partly shown) [Compound 41] — the same, 100%
- Cc1cn2nc([C@@H]3CCCCN3C(=O)c3cc(Cl)ccc3NS(C)(=O)=O)cc2nc1N1CCC12CNC2 [Compound 42] — the same, 100%
- CS(=O)(=O)Nc1ccc(Cl)cc1C(=O)N1CCCC[C@H]1c1cc2nc(N3CCC3)cc(N3CCNC(C#N)C3)n2n1 (stereo partly shown) [Compound 43] — the same, 100%
- Cc1cc(N2CC[C@H](N)C2)nc2cc([C@@H]3CCCCN3C(=O)c3cc(Cl)ccc3NS(C)(=O)=O)nn12 [Compound 44] — the same, 100%
- Cc1cccc(NS(C)(=O)=O)c1C(=O)N1CCCC[C@H]1c1cc2nc(C3CC3)cc(C)n2n1 [Compound 45] — the same, 100%
- Cc1cc(C2CC2)nc2cc([C@@H]3CCCCN3C(=O)c3ccccc3NS(C)(=O)=O)nn12 [Compound 46] — lower, 97%
- Cc1cc(C2CC2)nc2cc([C@@H]3CCCCN3C(=O)c3c(NS(C)(=O)=O)cccc3C(F)(F)F)nn12 [Compound 47] — lower, 99%
- O=C(c1ccccc1C(F)(F)F)N1CCCC[C@H]1c1cc2nc(N3CC(O)C3)cc(N3CC(O)C3)n2n1 [Compound 50] — the same, 100%
- Cc1ccc(NS(C)(=O)=O)c(C(=O)N2CCCC[C@H]2c2cc3nc(C)cc(C)n3n2)c1 [Compound 52] — lower, 99%
- CN1CCN(c2cc(N3CC(N)C3)nc3cc([C@@H]4CCCCN4C(=O)c4cc(Cl)ccc4NS(C)(=O)=O)nn23)CC1 [Compound 53] — lower, 99%
- O=C(c1cc(Cl)ccc1NS(=O)(=O)CC(F)(F)F)N1CCCC[C@H]1c1cc2nc(N3CCC3)cc(N3CCNCC3)n2n1 [Compound 55] — lower, 98%
- CS(=O)(=O)Nc1ccc(Cl)cc1C(=O)N1CCCC[C@H]1c1cc2nc(C3CNC3)cc(N3CCOCC3)n2n1 [Compound 56] — lower, 93%

Source: patent US10174038B2, “Compounds and methods for antiviral treatment” (Gilead Sciences, Inc., priority 2012, dated 2019)
